# From ChEMBL document CHEMBL3991601, “The target landscape of clinical kinase drugs” (Science, 2017)
# Activity calls are given as the source filed them.
# Assays:
# [1] = target: U5 small nuclear ribonucleoprotein 200 kDa helicase (Homo sapiens, UniProt O75643)
# [2] = target: Atypical kinase COQ8A, mitochondrial (Homo sapiens, UniProt Q8NI60)
# [3] = target: cAMP-dependent protein kinase catalytic subunit beta (Homo sapiens, UniProt P22694)
# DNA topoisomerase 2-beta = DNA topoisomerase 2-beta (Homo sapiens, UniProt Q02880)
# DNA topoisomerase 2-beta, sequence (Q02880 whole entry): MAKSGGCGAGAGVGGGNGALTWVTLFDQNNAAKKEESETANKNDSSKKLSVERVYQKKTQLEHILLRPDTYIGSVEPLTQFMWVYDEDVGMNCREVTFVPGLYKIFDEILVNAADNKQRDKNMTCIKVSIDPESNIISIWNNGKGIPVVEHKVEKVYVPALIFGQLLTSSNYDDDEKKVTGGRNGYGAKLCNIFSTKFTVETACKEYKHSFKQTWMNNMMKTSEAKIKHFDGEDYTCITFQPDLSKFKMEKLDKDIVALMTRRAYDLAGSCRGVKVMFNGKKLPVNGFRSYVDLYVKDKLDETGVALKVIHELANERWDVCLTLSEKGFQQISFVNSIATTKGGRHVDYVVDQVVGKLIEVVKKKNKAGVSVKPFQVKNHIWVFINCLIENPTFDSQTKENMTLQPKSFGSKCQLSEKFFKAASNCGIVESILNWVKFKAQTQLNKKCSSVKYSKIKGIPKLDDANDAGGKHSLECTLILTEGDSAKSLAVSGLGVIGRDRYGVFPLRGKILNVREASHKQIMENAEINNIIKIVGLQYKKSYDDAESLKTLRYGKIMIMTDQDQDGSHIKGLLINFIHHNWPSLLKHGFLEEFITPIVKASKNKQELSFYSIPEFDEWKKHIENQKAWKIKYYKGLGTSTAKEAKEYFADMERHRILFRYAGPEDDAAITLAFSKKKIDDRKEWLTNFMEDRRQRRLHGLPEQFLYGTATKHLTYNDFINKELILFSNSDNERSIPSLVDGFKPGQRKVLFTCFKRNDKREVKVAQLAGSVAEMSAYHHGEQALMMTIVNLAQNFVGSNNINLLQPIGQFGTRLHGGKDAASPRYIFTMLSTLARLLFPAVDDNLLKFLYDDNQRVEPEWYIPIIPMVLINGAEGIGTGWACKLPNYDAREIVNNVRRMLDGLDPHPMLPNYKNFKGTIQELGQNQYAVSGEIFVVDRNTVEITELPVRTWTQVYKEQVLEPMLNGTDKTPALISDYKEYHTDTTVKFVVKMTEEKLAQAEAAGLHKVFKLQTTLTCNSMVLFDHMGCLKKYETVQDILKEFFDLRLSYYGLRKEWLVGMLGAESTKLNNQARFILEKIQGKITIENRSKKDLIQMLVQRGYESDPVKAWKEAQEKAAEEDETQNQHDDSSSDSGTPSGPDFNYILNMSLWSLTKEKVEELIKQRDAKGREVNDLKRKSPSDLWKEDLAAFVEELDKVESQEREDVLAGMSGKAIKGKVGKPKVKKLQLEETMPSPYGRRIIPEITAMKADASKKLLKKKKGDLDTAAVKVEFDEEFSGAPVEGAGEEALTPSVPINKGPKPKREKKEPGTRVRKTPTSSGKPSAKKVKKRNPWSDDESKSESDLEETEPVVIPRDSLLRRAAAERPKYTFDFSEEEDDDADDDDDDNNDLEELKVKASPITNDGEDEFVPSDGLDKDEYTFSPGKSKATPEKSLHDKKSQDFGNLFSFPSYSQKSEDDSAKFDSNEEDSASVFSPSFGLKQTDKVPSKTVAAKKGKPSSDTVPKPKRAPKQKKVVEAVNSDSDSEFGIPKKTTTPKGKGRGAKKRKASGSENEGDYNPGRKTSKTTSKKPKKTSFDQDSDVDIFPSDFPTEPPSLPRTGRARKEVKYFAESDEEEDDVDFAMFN
# [4] = target: Serine/threonine-protein kinase PAK 4 (Homo sapiens, UniProt O96013)
# [5] = target: NADH dehydrogenase [ubiquinone] 1 alpha subcomplex subunit 13 (Homo sapiens, UniProt Q9P0J0)
# NADH dehydrogenase [ubiquinone] 1 alpha subcomplex subunit 13, sequence (Q9P0J0 whole entry, one chain of several): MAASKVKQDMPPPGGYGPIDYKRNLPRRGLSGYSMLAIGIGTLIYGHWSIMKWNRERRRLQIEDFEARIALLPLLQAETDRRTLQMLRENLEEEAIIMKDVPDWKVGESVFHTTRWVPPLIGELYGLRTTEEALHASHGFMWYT
# [6] = target: T1, ATP-dependent 6-phosphofructokinase, platelet type (Homo sapiens, UniProt Q01813)
# T1 sequence (Q01813 whole entry): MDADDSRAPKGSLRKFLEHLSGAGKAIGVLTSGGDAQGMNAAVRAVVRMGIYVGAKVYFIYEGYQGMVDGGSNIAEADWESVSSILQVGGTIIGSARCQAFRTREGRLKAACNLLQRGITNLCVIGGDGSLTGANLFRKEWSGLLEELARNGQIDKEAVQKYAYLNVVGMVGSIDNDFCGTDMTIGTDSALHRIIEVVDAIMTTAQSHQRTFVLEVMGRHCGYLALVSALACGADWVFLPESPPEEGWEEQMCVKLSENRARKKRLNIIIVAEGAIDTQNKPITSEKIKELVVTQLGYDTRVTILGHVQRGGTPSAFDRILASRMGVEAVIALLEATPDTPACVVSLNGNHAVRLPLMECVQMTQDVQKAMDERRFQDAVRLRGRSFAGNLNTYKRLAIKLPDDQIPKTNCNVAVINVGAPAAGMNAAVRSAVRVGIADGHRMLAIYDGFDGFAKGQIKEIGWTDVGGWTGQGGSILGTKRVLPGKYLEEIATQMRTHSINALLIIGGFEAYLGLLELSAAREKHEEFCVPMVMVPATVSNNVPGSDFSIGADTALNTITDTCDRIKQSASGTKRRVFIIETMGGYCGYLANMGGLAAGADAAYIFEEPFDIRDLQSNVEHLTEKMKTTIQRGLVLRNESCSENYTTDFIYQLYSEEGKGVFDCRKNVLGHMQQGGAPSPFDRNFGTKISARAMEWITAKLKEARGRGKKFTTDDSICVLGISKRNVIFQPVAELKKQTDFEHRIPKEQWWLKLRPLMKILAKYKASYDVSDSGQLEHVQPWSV
# [7] = target: Platelet-derived growth factor receptor beta (Homo sapiens, UniProt P09619)
# [8] = target: T2, Delta(24)-sterol reductase (Homo sapiens, UniProt Q15392)
# T2 sequence (Q15392 whole entry): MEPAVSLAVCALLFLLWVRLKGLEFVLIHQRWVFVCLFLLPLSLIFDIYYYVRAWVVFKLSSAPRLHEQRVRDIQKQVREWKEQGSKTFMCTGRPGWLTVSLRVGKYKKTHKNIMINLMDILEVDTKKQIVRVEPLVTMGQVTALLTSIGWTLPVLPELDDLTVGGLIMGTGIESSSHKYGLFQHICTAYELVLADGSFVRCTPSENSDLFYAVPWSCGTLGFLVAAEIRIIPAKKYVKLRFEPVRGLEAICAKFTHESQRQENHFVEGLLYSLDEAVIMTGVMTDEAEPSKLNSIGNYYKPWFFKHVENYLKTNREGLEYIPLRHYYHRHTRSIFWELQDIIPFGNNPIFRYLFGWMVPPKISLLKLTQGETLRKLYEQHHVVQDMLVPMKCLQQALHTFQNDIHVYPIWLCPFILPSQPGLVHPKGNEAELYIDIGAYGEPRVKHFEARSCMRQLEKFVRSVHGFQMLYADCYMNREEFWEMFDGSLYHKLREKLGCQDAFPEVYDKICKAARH
# [9] = target: Serine/threonine-protein kinase MRCK alpha (Homo sapiens, UniProt Q5VT25)
# [10] = target: Maternal embryonic leucine zipper kinase (Homo sapiens, UniProt Q14680)
# [11] = target: Casein kinase II subunit alpha' (Homo sapiens, UniProt P19784)
# Casein kinase II subunit alpha', sequence (P19784 whole entry): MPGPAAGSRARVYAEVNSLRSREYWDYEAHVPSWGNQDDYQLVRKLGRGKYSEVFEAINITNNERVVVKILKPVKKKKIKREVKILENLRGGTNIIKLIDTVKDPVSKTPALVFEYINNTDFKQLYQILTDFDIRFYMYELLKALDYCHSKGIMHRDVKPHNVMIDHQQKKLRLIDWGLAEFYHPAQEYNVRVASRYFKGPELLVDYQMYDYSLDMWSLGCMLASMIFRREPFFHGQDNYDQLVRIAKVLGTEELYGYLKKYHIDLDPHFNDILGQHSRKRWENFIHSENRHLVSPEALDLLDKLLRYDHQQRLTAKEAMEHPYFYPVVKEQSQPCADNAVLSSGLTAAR
# [12] = target: T3, Serine/threonine-protein kinase PLK4 (Homo sapiens, UniProt O00444)
# T3 sequence (O00444 whole entry): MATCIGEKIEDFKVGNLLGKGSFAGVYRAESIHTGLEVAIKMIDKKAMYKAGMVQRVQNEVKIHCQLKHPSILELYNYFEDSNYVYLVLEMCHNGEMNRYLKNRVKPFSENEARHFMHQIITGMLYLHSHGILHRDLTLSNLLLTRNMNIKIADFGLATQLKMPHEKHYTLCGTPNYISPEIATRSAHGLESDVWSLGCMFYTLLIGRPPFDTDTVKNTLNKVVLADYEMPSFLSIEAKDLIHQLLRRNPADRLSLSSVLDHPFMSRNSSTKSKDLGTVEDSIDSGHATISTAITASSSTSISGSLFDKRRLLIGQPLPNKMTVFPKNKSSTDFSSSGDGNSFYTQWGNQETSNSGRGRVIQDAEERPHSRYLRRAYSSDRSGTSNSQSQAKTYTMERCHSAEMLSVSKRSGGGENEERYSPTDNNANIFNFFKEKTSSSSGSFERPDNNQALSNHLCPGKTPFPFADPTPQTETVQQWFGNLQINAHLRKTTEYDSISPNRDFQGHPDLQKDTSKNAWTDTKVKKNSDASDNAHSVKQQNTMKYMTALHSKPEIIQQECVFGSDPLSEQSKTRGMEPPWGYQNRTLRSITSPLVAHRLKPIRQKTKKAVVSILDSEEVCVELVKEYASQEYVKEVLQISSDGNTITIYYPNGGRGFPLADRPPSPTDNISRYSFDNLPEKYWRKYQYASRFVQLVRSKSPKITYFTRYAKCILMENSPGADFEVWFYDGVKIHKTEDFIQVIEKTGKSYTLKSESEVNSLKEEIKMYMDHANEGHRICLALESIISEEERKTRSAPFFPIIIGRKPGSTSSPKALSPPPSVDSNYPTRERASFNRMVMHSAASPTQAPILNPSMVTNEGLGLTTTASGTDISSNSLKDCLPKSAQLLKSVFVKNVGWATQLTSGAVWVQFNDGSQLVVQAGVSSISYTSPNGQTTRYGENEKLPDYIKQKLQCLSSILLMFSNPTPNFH
# Note: in the data inactive means no Kd found up to 30 µM.
# Atypical kinase COQ8A, mitochondrial, sequence (Q8NI60 whole entry): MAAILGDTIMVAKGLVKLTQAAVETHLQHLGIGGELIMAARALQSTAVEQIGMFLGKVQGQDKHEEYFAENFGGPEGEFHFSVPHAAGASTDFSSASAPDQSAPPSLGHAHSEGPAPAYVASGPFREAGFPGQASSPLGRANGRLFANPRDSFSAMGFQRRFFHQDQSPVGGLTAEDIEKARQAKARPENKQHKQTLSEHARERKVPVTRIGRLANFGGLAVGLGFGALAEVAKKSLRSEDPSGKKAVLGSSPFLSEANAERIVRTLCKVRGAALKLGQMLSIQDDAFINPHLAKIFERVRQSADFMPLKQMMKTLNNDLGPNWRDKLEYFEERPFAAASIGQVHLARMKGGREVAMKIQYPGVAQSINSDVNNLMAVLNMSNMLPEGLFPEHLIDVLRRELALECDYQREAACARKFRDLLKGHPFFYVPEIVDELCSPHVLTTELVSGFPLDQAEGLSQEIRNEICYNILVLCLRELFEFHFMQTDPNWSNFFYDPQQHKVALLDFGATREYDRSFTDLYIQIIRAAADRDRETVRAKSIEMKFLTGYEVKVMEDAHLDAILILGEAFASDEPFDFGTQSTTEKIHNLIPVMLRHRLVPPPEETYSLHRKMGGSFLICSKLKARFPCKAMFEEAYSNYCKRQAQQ
# U5 small nuclear ribonucleoprotein 200 kDa helicase, sequence (O75643 whole entry): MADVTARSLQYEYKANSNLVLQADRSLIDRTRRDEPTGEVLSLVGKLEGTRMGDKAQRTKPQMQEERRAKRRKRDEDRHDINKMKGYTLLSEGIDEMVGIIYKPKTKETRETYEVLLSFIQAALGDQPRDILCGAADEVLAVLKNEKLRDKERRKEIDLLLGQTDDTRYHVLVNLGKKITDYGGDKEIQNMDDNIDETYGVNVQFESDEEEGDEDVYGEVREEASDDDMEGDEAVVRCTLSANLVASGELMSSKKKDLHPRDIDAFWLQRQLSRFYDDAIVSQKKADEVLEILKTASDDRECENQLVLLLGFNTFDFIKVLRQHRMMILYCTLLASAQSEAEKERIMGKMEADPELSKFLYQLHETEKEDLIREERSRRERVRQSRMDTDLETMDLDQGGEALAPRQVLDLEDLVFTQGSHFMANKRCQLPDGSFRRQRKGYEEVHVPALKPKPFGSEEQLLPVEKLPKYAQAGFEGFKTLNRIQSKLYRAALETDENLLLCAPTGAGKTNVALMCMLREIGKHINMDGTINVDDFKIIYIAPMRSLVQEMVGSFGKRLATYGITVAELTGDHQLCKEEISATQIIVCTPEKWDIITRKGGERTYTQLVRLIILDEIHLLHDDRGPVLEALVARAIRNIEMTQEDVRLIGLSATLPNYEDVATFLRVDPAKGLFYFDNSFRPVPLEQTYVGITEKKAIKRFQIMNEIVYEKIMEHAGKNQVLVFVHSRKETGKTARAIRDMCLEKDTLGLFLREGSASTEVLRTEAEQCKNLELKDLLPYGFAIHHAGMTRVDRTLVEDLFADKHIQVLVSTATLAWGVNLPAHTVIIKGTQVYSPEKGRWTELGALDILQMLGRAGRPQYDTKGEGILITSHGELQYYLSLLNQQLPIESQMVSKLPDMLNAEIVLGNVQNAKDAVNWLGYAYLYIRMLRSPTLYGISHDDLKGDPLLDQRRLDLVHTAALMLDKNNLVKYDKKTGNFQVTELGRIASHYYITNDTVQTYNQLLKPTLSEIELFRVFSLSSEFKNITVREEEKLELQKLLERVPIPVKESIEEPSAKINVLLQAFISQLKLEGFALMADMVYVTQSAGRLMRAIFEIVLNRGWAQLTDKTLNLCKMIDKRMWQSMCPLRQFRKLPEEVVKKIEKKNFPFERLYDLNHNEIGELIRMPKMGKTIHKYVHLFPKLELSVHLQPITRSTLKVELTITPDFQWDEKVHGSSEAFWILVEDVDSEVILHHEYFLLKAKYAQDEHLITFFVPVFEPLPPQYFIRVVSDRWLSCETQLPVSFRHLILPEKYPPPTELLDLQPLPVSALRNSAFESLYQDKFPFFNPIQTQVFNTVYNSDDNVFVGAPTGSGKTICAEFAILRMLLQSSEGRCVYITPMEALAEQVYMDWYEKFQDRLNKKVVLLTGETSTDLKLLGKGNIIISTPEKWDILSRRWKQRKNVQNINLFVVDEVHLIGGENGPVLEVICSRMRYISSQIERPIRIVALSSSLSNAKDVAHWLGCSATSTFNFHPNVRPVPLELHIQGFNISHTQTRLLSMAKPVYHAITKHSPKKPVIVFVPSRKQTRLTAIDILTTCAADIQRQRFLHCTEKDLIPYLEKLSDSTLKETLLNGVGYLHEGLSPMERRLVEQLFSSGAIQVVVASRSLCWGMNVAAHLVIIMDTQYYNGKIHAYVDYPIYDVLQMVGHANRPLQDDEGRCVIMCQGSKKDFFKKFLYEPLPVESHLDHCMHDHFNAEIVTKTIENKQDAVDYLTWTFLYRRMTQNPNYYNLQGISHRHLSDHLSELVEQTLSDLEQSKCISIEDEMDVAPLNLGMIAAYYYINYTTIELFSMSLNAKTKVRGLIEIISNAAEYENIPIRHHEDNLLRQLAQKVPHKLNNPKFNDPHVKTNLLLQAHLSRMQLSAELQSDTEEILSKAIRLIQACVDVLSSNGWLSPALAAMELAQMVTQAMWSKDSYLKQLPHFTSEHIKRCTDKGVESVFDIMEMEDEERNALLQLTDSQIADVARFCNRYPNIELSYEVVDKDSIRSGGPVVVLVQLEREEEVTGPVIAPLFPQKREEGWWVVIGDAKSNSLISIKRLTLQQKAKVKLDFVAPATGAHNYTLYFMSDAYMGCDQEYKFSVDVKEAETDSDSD
Compound,Kd [1],Kd [2],Kd [3],Kd (DNA topoisomerase 2-beta),Kd [4],Kd [5],Kd [6],Kd [7],Kd [8],Kd [9],Kd [10],Kd [11],Kd [12]
O=C(Cc1ccc(-c2ccc(OCCN3CCOCC3)cc2)cn1)NCc1ccccc1 [TIRBANIBULIN],> 30 µM (inactive),> 30 µM (inactive),> 30 µM (inactive),> 30 µM (inactive),> 30 µM (inactive),> 30 µM (inactive),> 30 µM (inactive),> 30 µM (inactive),> 30 µM (inactive),> 30 µM (inactive),> 30 µM (inactive),> 30 µM (inactive),> 30 µM (inactive)
O=C1NC(=O)[C@@H](c2cn3c4c(cccc24)CCC3)[C@@H]1c1c[nH]c2ccccc12 [TIVANTINIB],> 30 µM (inactive),> 30 µM (inactive),> 30 µM (inactive),> 30 µM (inactive),> 30 µM (inactive),> 30 µM (inactive),> 30 µM (inactive),> 30 µM (inactive),> 30 µM (inactive),> 30 µM (inactive),> 30 µM (inactive),> 30 µM (inactive),> 30 µM (inactive)
C[C@@H](NC(=O)c1ncnc(N)c1Cl)c1ncc(C(=O)Nc2cc(C(F)(F)F)c(Cl)cn2)s1 [TOVORAFENIB],> 30 µM (inactive),> 30 µM (inactive),> 30 µM (inactive),> 30 µM (inactive),> 30 µM (inactive),> 30 µM (inactive),> 30 µM (inactive),11.1 µM (active),> 30 µM (inactive),> 30 µM (inactive),> 30 µM (inactive),> 30 µM (inactive),> 30 µM (inactive)
Cc1cc(Nc2ncnc3ccc(NC4=NC(C)(C)CO4)cc23)ccc1Oc1ccn2ncnc2c1 [TUCATINIB],> 30 µM (inactive),> 30 µM (inactive),> 30 µM (inactive),> 30 µM (inactive),> 30 µM (inactive),> 30 µM (inactive),> 30 µM (inactive),> 30 µM (inactive),> 30 µM (inactive),> 30 µM (inactive),> 30 µM (inactive),> 30 µM (inactive),> 30 µM (inactive)
CC(C)c1cc(CNc2nc(Nc3cc(C4CC4)[nH]n3)cc(N3CCN(C)CC3)n2)on1 [XL-228],> 30 µM (inactive),> 30 µM (inactive),> 30 µM (inactive),> 30 µM (inactive),50.4 µM,> 30 µM (inactive),> 30 µM (inactive),> 30 µM (inactive),> 30 µM (inactive),> 30 µM (inactive),> 30 µM (inactive),2.44 µM (active),0.003 µM (active)
C[C@@H](N)c1ccc(C(=O)Nc2ccnc3[nH]ccc23)cc1 [Y-39983],> 30 µM (inactive),> 30 µM (inactive),> 30 µM (inactive),> 30 µM (inactive),> 30 µM (inactive),> 30 µM (inactive),> 30 µM (inactive),> 30 µM (inactive),> 30 µM (inactive),> 30 µM (inactive),> 30 µM (inactive),2.74 µM (active),> 30 µM (inactive)
CN1C/C=C/CCOc2cccc(c2)-c2ccnc(n2)Nc2cccc(c2)C1 [ZOTIRACICLIB],> 30 µM (inactive),> 30 µM (inactive),> 30 µM (inactive),> 30 µM (inactive),> 30 µM (inactive),> 30 µM (inactive),> 30 µM (inactive),> 30 µM (inactive),> 30 µM (inactive),> 30 µM (inactive),> 30 µM (inactive),2.3 µM (active),> 30 µM (inactive)
